Reference: ChEMBL document CHEMBL4507319 (2021)

Assays:
[1] = test system: Mast/stem cell growth factor receptor Kit (Homo sapiens), P10721 [V559D]; conditions: Compound concentration 1000.0 nM
[2] = target: Serine/threonine-protein kinase PknB (Mycobacterium tuberculosis) (UniProt P9WI81); conditions: Compound concentration 1000.0 nM
[3] = target: Serine/threonine-protein kinase 10 (Homo sapiens) (UniProt O94804); conditions: Compound concentration 1000.0 nM
[4] = target: Serine/threonine-protein kinase PAK 3 (Homo sapiens) (UniProt O75914); conditions: Compound concentration 1000.0 nM
[5] = target: Tyrosine-protein kinase FRK (Homo sapiens) (UniProt P42685); conditions: Compound concentration 1000.0 nM
[6] = target: Alpha-2A adrenergic receptor (Homo sapiens) (UniProt P08913); conditions: Compound concentration 10.0 uM
[7] = target: Alpha-2B adrenergic receptor (Homo sapiens) (UniProt P18089); conditions: Compound concentration 10.0 uM
[8] = target: T1, Serine/threonine-protein kinase Nek2 (Homo sapiens) (UniProt P51955); conditions: Compound concentration 1000.0 nM
T1 sequence (whole entry): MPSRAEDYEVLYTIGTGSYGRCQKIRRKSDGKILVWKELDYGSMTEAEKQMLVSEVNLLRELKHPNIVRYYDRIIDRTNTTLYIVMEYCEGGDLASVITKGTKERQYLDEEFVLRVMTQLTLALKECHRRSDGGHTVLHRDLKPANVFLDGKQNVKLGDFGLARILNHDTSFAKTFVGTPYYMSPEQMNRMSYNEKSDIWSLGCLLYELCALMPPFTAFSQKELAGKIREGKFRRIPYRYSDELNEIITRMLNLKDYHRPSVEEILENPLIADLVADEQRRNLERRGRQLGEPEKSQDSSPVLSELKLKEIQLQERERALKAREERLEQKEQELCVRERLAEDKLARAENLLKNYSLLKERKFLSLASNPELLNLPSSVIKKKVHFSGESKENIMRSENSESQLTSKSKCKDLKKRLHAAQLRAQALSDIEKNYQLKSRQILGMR

[9] = target: Sigma non-opioid intracellular receptor 1 (Homo sapiens) (UniProt Q99720); conditions: Compound concentration 10.0 uM
[10] = target: Serine/threonine-protein kinase D3 (Homo sapiens) (UniProt O94806); conditions: Compound concentration 1000.0 nM
[11] = target: Cyclin-dependent kinase-like 5 (Homo sapiens) (UniProt O76039); conditions: Compound concentration 1000.0 nM
[12] = target: Casein kinase I isoform gamma-1 (Homo sapiens) (UniProt Q9HCP0); conditions: Compound concentration 1000.0 nM
[13] = target: Serine/threonine-protein kinase Nek5 (Homo sapiens) (UniProt Q6P3R8); conditions: Compound concentration 1000.0 nM
[14] = target: T2, Dual specificity mitogen-activated protein kinase kinase 6 (Homo sapiens) (UniProt P52564); conditions: Compound concentration 1000.0 nM
T2 sequence (whole entry): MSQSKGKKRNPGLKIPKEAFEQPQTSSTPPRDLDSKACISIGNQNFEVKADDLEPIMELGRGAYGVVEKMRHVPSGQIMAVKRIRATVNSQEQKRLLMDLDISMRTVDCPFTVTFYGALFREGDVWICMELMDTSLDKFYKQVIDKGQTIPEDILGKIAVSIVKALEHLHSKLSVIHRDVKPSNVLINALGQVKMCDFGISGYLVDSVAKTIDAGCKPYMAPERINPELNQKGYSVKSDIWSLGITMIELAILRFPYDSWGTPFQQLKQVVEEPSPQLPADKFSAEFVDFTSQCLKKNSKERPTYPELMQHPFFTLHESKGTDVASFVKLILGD

[15] = target: T3, Mitogen-activated protein kinase 12 (Homo sapiens) (UniProt P53778); conditions: Compound concentration 1000.0 nM
T3 sequence (whole entry): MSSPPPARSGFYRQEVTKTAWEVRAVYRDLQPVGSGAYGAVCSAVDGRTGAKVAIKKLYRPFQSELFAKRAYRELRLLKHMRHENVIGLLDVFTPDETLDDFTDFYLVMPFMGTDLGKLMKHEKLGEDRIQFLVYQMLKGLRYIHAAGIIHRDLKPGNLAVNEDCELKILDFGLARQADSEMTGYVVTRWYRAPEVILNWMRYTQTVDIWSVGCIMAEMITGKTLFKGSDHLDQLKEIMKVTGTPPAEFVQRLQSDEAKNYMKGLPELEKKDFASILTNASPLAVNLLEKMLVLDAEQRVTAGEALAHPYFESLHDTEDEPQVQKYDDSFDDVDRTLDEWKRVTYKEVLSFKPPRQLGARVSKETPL

[16] = target: Cyclin-dependent kinase 13 (Homo sapiens) (UniProt Q14004); conditions: Compound concentration 1000.0 nM
[17] = target: Kappa-type opioid receptor (Homo sapiens) (UniProt P41145); conditions: Compound concentration 10.0 uM
[18] = test system: Proto-oncogene tyrosine-protein kinase receptor Ret (Homo sapiens), P07949 [M918T]; conditions: Compound concentration 1000.0 nM
[19] = target: 5-hydroxytryptamine receptor 2C (Homo sapiens) (UniProt P28335); conditions: Compound concentration 10.0 uM
[20] = target: Tyrosine-protein kinase Fgr (Homo sapiens) (UniProt P09769); conditions: Compound concentration 1000.0 nM
[21] = target: Mitogen-activated protein kinase kinase kinase 6 (Homo sapiens) (UniProt O95382); conditions: Compound concentration 1000.0 nM
[22] = test system: Tyrosine-protein kinase ABL1 (Homo sapiens), P00519 [E255K]; conditions: Compound concentration 1000.0 nM
[23] = target: Macrophage colony-stimulating factor 1 receptor (Homo sapiens) (UniProt P07333); conditions: Compound concentration 1000.0 nM
[24] = target: Serine/threonine-protein kinase/endoribonuclease IRE1 (Homo sapiens) (UniProt O75460); conditions: Compound concentration 1000.0 nM
[25] = test system: Phosphatidylinositol 4,5-bisphosphate 3-kinase catalytic subunit alpha isoform (Homo sapiens), P42336 [H1047L]; conditions: Compound concentration 1000.0 nM
[26] = target: Serine/threonine-protein kinase Nek6 (Homo sapiens) (UniProt Q9HC98); conditions: Compound concentration 1000.0 nM
[27] = target: Serine/threonine-protein kinase 32C (Homo sapiens) (UniProt Q86UX6); conditions: Compound concentration 1000.0 nM
[28] = test system: Phosphatidylinositol 4,5-bisphosphate 3-kinase catalytic subunit alpha isoform (Homo sapiens), P42336 [Q546K]; conditions: Compound concentration 1000.0 nM
[29] = target: Tyrosine-protein kinase ABL2 (Homo sapiens) (UniProt P42684); conditions: Compound concentration 1000.0 nM

Sequence of Cyclin-dependent kinase 13 (Homo sapiens) (Q14004 whole entry, looked up): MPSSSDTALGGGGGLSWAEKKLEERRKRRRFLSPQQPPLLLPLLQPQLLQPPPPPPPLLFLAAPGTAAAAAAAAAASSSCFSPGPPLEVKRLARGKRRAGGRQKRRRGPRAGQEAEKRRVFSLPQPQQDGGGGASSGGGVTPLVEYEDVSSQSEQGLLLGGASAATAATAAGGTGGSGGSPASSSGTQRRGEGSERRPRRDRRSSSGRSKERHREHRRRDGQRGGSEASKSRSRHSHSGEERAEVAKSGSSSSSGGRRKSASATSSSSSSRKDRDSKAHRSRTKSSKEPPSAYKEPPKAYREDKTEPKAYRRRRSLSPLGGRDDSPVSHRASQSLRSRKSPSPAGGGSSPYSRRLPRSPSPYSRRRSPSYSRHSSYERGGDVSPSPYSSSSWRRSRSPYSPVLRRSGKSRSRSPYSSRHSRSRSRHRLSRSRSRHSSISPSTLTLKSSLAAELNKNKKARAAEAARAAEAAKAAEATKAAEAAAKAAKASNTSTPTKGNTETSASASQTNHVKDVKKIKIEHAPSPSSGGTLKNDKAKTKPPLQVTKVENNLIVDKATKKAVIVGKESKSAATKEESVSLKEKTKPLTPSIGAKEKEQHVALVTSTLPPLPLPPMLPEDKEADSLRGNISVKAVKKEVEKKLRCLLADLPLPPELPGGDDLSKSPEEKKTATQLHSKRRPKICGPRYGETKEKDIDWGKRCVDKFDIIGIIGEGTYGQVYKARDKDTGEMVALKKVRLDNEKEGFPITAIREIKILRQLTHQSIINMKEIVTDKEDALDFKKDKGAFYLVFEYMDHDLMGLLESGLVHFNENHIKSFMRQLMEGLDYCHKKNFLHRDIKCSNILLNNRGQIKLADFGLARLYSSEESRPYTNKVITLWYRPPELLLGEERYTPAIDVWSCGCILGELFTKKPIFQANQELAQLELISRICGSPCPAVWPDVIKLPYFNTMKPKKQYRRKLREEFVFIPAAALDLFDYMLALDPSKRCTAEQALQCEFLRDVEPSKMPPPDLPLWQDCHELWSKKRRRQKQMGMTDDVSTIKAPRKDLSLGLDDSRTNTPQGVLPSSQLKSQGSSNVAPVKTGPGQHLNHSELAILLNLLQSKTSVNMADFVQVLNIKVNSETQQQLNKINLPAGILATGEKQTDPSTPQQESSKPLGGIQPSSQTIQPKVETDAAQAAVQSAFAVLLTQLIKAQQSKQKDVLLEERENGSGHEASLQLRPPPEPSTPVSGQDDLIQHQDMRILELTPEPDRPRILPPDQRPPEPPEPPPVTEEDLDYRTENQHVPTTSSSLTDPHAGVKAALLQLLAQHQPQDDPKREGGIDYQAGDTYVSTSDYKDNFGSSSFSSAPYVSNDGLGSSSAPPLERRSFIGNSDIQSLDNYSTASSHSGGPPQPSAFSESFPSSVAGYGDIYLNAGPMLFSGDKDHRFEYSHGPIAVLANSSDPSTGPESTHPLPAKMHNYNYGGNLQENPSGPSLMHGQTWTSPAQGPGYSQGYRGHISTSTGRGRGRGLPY
Sequence of Serine/threonine-protein kinase Nek5 (Homo sapiens) (Q6P3R8 whole entry): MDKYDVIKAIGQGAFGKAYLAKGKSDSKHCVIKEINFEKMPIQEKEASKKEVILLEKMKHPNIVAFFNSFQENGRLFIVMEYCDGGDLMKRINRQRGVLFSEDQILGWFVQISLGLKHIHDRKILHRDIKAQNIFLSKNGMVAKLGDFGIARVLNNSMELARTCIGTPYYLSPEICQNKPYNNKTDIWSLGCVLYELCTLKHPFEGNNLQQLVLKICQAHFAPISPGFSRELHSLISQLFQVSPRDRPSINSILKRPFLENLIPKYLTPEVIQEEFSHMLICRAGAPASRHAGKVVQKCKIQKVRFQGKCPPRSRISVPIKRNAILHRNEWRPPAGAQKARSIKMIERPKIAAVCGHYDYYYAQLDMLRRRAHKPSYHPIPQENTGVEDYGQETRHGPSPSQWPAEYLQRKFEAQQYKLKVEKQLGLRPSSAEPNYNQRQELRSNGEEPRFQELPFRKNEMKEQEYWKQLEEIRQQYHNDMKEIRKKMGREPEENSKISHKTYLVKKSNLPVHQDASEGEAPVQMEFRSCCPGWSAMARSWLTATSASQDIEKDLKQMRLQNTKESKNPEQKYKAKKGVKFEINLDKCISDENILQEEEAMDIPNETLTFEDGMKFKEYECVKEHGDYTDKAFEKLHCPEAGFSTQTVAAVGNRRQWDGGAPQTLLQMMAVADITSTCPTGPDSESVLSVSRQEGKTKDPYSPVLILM
Sequence of Serine/threonine-protein kinase 32C (Homo sapiens) (Q86UX6 whole entry, canonical isoform): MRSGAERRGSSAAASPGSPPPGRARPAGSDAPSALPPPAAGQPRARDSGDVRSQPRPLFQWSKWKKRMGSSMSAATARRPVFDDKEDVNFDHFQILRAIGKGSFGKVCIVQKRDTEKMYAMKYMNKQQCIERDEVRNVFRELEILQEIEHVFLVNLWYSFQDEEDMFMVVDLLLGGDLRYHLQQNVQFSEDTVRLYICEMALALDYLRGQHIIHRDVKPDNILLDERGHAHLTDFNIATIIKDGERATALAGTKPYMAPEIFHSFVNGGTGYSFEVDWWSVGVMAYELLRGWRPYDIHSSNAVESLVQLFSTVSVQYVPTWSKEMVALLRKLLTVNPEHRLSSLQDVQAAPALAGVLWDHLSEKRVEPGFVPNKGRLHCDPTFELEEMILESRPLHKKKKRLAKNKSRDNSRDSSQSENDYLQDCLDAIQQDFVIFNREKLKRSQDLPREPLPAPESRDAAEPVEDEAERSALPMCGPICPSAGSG
Sequence of Mitogen-activated protein kinase kinase kinase 6 (Homo sapiens) (O95382 whole entry): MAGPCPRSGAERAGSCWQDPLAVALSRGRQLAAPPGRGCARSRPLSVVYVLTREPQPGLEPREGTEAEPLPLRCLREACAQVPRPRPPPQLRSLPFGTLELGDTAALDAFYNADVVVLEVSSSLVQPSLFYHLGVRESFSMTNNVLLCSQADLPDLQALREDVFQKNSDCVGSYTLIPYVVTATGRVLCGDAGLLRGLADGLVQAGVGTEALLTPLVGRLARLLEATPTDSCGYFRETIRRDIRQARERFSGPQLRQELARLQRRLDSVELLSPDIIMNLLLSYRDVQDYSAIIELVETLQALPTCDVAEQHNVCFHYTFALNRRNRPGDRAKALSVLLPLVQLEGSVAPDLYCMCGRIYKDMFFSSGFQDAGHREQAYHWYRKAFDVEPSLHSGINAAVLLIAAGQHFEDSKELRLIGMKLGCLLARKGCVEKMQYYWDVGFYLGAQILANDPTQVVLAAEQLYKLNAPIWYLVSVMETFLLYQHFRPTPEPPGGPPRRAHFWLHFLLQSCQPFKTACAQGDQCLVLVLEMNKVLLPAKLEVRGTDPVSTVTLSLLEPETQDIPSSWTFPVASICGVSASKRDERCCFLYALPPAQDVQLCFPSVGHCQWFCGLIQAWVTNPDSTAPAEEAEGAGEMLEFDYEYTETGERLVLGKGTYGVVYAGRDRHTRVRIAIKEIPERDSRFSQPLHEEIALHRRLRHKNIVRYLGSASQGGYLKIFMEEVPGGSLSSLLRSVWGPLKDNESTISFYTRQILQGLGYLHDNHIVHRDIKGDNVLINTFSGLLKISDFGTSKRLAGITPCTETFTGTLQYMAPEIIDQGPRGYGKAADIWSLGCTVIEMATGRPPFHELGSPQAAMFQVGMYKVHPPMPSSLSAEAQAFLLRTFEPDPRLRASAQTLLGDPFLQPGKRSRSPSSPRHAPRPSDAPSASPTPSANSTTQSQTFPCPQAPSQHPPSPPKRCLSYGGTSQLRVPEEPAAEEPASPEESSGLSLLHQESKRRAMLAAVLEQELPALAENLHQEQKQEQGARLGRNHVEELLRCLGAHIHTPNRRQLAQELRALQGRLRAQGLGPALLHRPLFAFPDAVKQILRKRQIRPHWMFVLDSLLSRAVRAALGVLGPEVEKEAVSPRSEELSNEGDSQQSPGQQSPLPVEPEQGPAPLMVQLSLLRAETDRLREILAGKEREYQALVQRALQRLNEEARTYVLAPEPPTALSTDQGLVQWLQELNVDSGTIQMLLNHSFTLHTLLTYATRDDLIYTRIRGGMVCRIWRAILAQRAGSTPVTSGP
Sequence of Sigma non-opioid intracellular receptor 1 (Homo sapiens) (Q99720 whole entry): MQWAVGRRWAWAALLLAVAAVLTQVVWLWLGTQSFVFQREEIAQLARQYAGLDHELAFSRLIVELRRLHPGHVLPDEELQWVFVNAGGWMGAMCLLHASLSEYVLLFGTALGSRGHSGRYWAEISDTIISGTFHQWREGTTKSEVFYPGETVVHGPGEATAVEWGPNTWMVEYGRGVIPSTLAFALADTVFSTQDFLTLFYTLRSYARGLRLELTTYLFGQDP
Sequence of Tyrosine-protein kinase FRK (Homo sapiens) (P42685 whole entry): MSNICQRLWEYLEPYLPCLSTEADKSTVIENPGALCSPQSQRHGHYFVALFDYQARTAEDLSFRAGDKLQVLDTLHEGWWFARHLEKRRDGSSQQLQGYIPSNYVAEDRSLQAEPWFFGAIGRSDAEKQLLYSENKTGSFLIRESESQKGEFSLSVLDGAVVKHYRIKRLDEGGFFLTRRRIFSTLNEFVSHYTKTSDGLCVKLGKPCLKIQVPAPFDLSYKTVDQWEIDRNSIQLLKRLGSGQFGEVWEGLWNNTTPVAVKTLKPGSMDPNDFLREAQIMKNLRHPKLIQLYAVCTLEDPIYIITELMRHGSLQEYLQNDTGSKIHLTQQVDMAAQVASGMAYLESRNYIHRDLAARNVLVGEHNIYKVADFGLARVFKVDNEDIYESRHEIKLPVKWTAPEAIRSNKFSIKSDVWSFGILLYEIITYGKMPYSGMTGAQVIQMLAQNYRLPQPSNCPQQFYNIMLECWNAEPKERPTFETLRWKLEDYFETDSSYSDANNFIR
Sequence of Serine/threonine-protein kinase Nek6 (Homo sapiens) (Q9HC98 whole entry): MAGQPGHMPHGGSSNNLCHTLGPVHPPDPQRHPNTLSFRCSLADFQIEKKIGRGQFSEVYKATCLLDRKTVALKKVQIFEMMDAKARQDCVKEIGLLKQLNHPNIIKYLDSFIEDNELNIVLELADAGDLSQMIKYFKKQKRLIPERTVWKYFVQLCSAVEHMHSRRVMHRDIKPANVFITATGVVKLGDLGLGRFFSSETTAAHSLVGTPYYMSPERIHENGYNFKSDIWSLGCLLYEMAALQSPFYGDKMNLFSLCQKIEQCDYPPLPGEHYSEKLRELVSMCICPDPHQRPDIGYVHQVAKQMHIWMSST

| SMILES | residual activity [1] [%] | residual activity [2] [%] | residual activity [3] [%] | residual activity [4] [%] | residual activity [5] [%] | inhibition [6] [%] | inhibition [7] [%] | residual activity [8] [%] | inhibition [9] [%] | residual activity [10] [%] | residual activity [11] [%] | residual activity [12] [%] | residual activity [13] [%] | residual activity [14] [%] | residual activity [15] [%] | residual activity [16] [%] | inhibition [17] [%] | residual activity [18] [%] | inhibition [19] [%] | residual activity [20] [%] | further results |
| --- | --- | --- | --- | --- | --- | --- | --- | --- | --- | --- | --- | --- | --- | --- | --- | --- | --- | --- | --- | --- | --- |
| CC1=C(C#N)C(c2ccc3c(c2)c(NC(=O)c2ccccc2C)nn3C)C(C#N)=C(C)N1 [BAY-974] | 100 | 97 | 68 | 67 | 100 | 14.4 | 20.7 | 100 | 37.9 | 72 | 79 | 100 | 100 | 95 | 68 | 87 | 21.6 | 100 | 22.5 | 92 | residual activity [21]: 71%; residual activity [22]: 63%; residual activity [23]: 100%; residual activity [24]: 84%; residual activity [25]: 100%; residual activity [26]: 100%; residual activity [27]: 79%; residual activity [28]: 87%; residual activity [29]: 99% |
| CCc1ccccc1C(=O)Nc1n[nH]c2c(C)c(F)c(C3C(C#N)=C(C)N(C)C(C)=C3C#N)cc12 [BAY-3827] | 83 | 85 | 100 | 86 | 100 | 5.01 | 10.6 | 87 | 30.5 | 88 | 100 | 95 | 100 | 98 | 76 | 100 | 16.1 | 64 | 20 | 51 | residual activity [21]: 100%; residual activity [22]: 88%; residual activity [23]: 100%; residual activity [24]: 70%; residual activity [25]: 100%; residual activity [26]: 75%; residual activity [27]: 100%; residual activity [28]: 39%; residual activity [29]: 92% |
